Here are results for 15 compounds from PubChem BioAssay (NCI).

Assay in all cases: growth of human tumour cells (NCI), 48 h
Assay [1] relates to HL-60(TB) leukemia.
Assay [2] concerns IGROV1 ovarian.
In assay [3] the test system is K-562 leukemia.
The test system of assay [4] is MALME-3M melanoma.
The test system of assay [5] is NCI-H460 lung.
The test system of assay [6] is NCI-H522 lung.
In assay [7] the test system is SF-295 CNS.
The subject of assay [8] is SK-OV-3 ovarian.
Assay [9] relates to SN12C renal.
In assay [10] the test system is SW-620 colon.

Several values for one entry are separate records, joined by “and”; a condition that tells them apart may be missing. Identical values can stand only once.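 Step 1: Grow cells in 96-well plates. Step 2: Expose to compound for 48 hours at 5 concentrations. Step 3: Interpolate endpoints linearly; if unreached, use highest concentration. The concentration for 50% growth inhibition is given as GI50. TGI marks complete inhibition of growth.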

For `CCn1c(-c2nonc2N)nc2ccncc21`, the GI50 in assay [1], in assay [2], in assay [3], in [4], in assay [5] and in assay [6] was more than 25 µM in each case. Also, the GI50 in assay [7], in [8], in assay [9] and in [10] was more than 25 µM throughout. In addition, the TGI in assay [1], in assay [2], in assay [3], in assay [4], in assay [5] and in assay [6] was more than 25 µM each time. The TGI in [7], in assay [8], in assay [9] and in assay [10] was more than 25 µM each time.

Take `COc1cccc(COc2cc(-n3cnc4ccccc43)sc2C(N)=O)c1`: the GI50 was 6.03 µM in assay [1]; more than 23.8 µM in assay [2]; more than 25 µM in assay [3]; more than 25 µM in assay [4]; 9.23 µM in assay [5]; 9.92 µM in assay [6]. The GI50 is more than 15.6 µM in assay [7], more than 16.2 µM in [8], more than 20.5 µM in assay [9] and more than 11.1 µM in assay [10]. The TGI in assay [1], in assay [2], in [3], in assay [4], in assay [5] and in assay [6] was more than 25 µM throughout. In addition, the TGI in assay [7], in assay [8], in assay [9] and in assay [10] was more than 25 µM throughout.

`O=C1/C(=C/c2ccc([N+](=O)[O-])cc2)COc2ccc(O)cc21`: the GI50 in assay [1] is 2.48 µM; in assay [2], 2 µM; in [3], 2.28 µM; in assay [4], 13.9 µM; in assay [5] it was 9.03 µM; in assay [6] it was 2.05 µM. The GI50 in assay [7] is more than 100 µM; in assay [8], more than 100 µM; in [9], 2.22 µM; in assay [10], 1.5 µM. Also, the TGI is 7.92 µM in assay [1]; 4.99 µM in assay [2]; more than 100 µM in assay [3]; 75.2 µM in assay [4]; more than 100 µM in assay [5]; 6.05 µM in assay [6]. Besides, the TGI was more than 100 µM in [7], more than 100 µM in assay [8], 6.85 µM in assay [9] and 3.3 µM in assay [10].

As for `Cc1c(C)c(CC(=O)N2CC2)c(C)c(C)c1CC(=O)N1CC1`, the TGI in assay [1] is 10.3 µM; in [2], 43.2 µM; in assay [3], more than 92.7 µM; in assay [4], 27.1 µM; in assay [5], 50.2 µM; in [6], 27.1 µM. Also, the TGI in [7] was 60.5 µM; in assay [8] it was 99.5 µM; in [9], more than 56.7 µM; in assay [10] it was more than 57.2 µM.

As for `Cc1ccc(-n2nc(C(C)(C)C)cc2NC(=O)NCc2cc(F)ccc2Oc2ccc3c(cnn3CCO)c2)cc1`, the GI50 in [1] was 1.41 µM and 2.09 µM; in [2] it was 2.59 µM and 4.69 µM; in assay [3], 0.00802 µM and 0.0185 µM; in [4] it was 0.396 µM and 0.305 µM; in assay [5], > 10 µM and 4.85 µM; in assay [6], > 10 µM and 5.32 µM. The GI50 was > 10 µM and 10.2 µM in assay [7]; > 10 µM and 9.24 µM in assay [8]; > 10 µM and 6.27 µM in [9]; > 10 µM and 6.34 µM in assay [10]. Besides, the TGI in assay [1] is > 10 µM and 10.1 µM; in assay [2] it was more than 100 µM; in [3], more than 10 µM; in [4], > 10 µM and 1.73 µM; in [5] it was more than 59.7 µM; in assay [6] it was > 10 µM and 37.8 µM. The TGI in assay [7] was more than 100 µM; in assay [8] it was more than 83.9 µM; in [9], more than 100 µM; in assay [10], more than 100 µM.

Consider `CC1(C)CC(=O)C(CC2C(=O)c3ccccc3C2=O)C(=O)C1`, for which the TGI in assay [1], in assay [2], in assay [3], in assay [4], in [5] and in assay [6] was more than 100 µM throughout. Further, the TGI in assay [7], in [8], in assay [9] and in assay [10] was more than 100 µM each time.

As for `COc1c(O)c(OC)c2oc(-c3ccc(O)cc3)c(OC)c(=O)c2c1O`, the TGI in [1] was more than 100 µM; in assay [2] it was 51.4 µM; in [3], more than 100 µM; in [4], more than 100 µM; in assay [5], more than 100 µM; in [6], 70.9 µM. Also, the TGI is more than 100 µM in assay [7], 53.7 µM in assay [8], more than 100 µM in assay [9] and more than 100 µM in assay [10].

As for `C=C1C(=O)C23C(O)C1CC[C@H]2C12CCCC(C)(COC(C)=O)[C@H]1[C@H](O)[C@]3(O)OC2` (stereo not given in full), the TGI in assay [1] was 1.04 µM; in assay [2], 4.05 µM; in [3], 1.07 µM; in assay [4], 3.01 µM; in assay [5] it was 6.36 µM; in [6], 0.902 µM. In addition, the TGI in assay [7] was found to be 2.41 µM; in assay [8], 13.3 µM; in assay [9], 3.44 µM; in assay [10], 1.92 µM.

Take `O=C1C2=C(CCC2)Nc2cccc3ncn1c23`: the TGI in assay [1], in assay [2], in assay [3], in assay [4], in assay [5] and in assay [6] was more than 100 µM each time. Also, the TGI in assay [7], in assay [8], in assay [9] and in assay [10] was more than 100 µM each time.

As for `Cn1c(=O)nc2n(-c3ccc(Cl)c(C(F)(F)F)c3)c3ccccc3nc-2c1=O`, the TGI was 46.2 µM in assay [1]; more than 100 µM in assay [2]; more than 100 µM in assay [3]; 34.7 µM in assay [4]; more than 100 µM in [5]; 73 µM in assay [6]. For the same compound, the TGI in assay [7] was more than 100 µM; in [8], more than 100 µM; in assay [9], more than 100 µM; in assay [10] it was 62 µM.

Take `CCCCCCCCCCCCCCCCCCOCC(COCCOCC[N+]1(CCCCCC(=O)[O-])CCCC1)Oc1ncccn1` (stereo not given): the TGI was determined as 2.6 µM in assay [1]; 3.83 µM in assay [2]; 14.2 µM in [3]; 32.8 µM in assay [4]; 16.8 µM in [5]; 7.68 µM in [6]. Further, the TGI in assay [7] is 27.2 µM; in assay [8], 6.62 µM; in assay [9], 16.7 µM; in [10] it was 19.2 µM.

As for `Cc1nc(-c2cccnc2)sc1C(=O)/C=C/c1cccc([N+](=O)[O-])c1`, the TGI in assay [1], in [2], in assay [3], in assay [4], in [5] and in assay [6] was more than 100 µM throughout. Also, the TGI in assay [7], in assay [8], in assay [9] and in assay [10] was more than 100 µM throughout.

Take `C[C@]12C/C(=C/O)C(=O)C(O)=C1CC[C@@H]1C2CC[C@@]2(C)C1CC[C@@H]2O` (stereo not given in full): the TGI in assay [1] worked out at 41.8 µM; in [2], 46 µM; in [3] it was 82.2 µM; in assay [4], 46.2 µM; in assay [5] it was 48.1 µM; in [6], 32 µM. Moreover, the TGI in [7] was 72.5 µM; in assay [8], 65.5 µM; in [9] it was 61.1 µM; in assay [10] it was more than 100 µM.

Regarding `COc1ccc(Nc2nccc(N3CCN(c4c5ccc(Cl)cc5nc5ccc(OC)cc45)CC3)n2)cc1`, the GI50 in assay [1] is 7.22 µM; in [2] it was 42.4 µM; in assay [3] it was 3.06 µM; in assay [4], 92 µM; in assay [5], 8.13 µM; in assay [6], 1.78 µM. The GI50 in assay [7] is 10.7 µM; in [8], 53.1 µM; in [9] it was 6.06 µM; in [10] it was 7.19 µM. Further, the TGI in [1] was more than 100 µM; in [2] it was more than 100 µM; in assay [3], more than 100 µM; in assay [4], more than 100 µM; in assay [5], more than 100 µM; in [6], 5.09 µM. Besides, the TGI in [7] is 42.3 µM; in assay [8], more than 100 µM; in assay [9], more than 100 µM; in [10], more than 100 µM.

As to `CCCCCCCCCCCC1CC(=O)NCCCN(C)CCCCN(C)CCCN1C` (stereo not given), the TGI in assay [1] was 5.32 µM; in assay [2], 3.22 µM; in assay [3], 0.699 µM; in assay [4] it was 3.33 µM; in assay [5], 2.66 µM; in assay [6] it was 3.27 µM. The TGI was 3.07 µM in assay [7], 3.2 µM in [8], 3.14 µM in assay [9] and 2.35 µM in assay [10].
